Patent publication US8975415B2, “Chromane compounds” (CoMentis, Inc., priority 2012, dated 2015)

Experiments:
BACE1 [1] = biological target: T1, BACE1 (Homo sapiens (Human), UniProt P56817); assay: Measurement of BACE1 inhibition by time resolved fluorescence resonance energy transfer (TR-FRET); assay type: biochemical; conditions: Eu-CEVNLDAEFK-QSY 7 substrate, read-out: Test Example 2 IC50
Target sequence in this assay (P56817 75-416): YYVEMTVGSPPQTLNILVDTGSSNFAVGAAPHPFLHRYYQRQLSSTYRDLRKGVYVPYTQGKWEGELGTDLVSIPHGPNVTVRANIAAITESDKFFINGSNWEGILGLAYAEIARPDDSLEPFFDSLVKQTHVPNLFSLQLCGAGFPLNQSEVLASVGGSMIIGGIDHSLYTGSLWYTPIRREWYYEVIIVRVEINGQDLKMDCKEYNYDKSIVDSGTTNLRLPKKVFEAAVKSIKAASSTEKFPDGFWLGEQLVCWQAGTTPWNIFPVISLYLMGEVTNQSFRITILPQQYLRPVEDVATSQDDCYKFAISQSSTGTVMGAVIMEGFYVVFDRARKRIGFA
Experimental: If the sample contains BACE1 activity, the Eu chelate and the quencher will be separated as the substrate is cleaved. The Eu-signal increases and it can be measured by time-resolved fluorometry, EnVision™, 30 minutes after the substrate (final concentration 300 nM) was added.

BACE1 [2] = biological target: T1, BACE1; assay: Measurement of Aβ production inhibition in cell (SK-N-BE(2) neuroblastoma cells, Aβ40 ELISA); conditions: SK-N-BE(2) cells, 6 hours
Target sequence in this assay (P56817 46-501): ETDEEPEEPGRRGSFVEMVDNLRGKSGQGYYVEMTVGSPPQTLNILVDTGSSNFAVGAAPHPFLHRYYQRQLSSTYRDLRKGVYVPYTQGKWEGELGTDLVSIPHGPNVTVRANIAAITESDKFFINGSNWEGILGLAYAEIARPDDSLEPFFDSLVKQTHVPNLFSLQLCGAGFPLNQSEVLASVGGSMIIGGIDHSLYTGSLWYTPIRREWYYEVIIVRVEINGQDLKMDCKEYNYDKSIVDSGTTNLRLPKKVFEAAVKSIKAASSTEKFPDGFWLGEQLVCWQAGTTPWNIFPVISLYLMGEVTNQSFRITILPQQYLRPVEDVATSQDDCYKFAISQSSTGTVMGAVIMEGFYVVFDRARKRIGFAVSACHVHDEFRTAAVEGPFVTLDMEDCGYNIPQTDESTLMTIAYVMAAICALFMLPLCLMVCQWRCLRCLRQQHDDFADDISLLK
Experimental: The potency of compounds against BACE1 activity was determined in a cellular assay of Aβ production. […] Test compounds were dissolved in dimethyl sulfoxide and diluted with dimethyl sulfoxide and put into RPMI1640/5% FBS/penicillin-streptomycin media (final dimethyl sulfoxide concentration is 0.5%). […] CellTiter-Glo Substrate was dissolved into CellTiter-Glo Buffer and added to the plates in 95 μL/well. After shaking the plates for 2 minutes, the whole sample was transferred into a white 96-well plate and luminescence was measured for ATP quantification as the cell viability. Aβ concentration measured by ELISA was normalized by the viability of the corresponding cells.

BACE1 [3] = biological target: T1, BACE1; assay: Measurement of BACE1 inhibition by fluorescence resonance energy transfer (FRET), MCA substrate; conditions: FRET; for IC50: read-out: Test Example 1 IC50, MCA-SEVNLDAEFK(DNP)-NH2 substrate, pH 4.4
Target sequence in this assay (P56817 75-416): as the sequence (P56817 75-416) above

hERG potassium channel = hERG potassium channel (Homo sapiens (Human), UniProt Q12809); assay: hERG inhibition, automated planar patch-clamp in hERG-expressing CHO cells; conditions: read-out: Test Example 5 hERG IC50; whole-cell patch clamp, room temperature
[4] = Test Example 3 IC50, Aβ40 production

hERG potassium channel, sequence (Q12809 whole entry): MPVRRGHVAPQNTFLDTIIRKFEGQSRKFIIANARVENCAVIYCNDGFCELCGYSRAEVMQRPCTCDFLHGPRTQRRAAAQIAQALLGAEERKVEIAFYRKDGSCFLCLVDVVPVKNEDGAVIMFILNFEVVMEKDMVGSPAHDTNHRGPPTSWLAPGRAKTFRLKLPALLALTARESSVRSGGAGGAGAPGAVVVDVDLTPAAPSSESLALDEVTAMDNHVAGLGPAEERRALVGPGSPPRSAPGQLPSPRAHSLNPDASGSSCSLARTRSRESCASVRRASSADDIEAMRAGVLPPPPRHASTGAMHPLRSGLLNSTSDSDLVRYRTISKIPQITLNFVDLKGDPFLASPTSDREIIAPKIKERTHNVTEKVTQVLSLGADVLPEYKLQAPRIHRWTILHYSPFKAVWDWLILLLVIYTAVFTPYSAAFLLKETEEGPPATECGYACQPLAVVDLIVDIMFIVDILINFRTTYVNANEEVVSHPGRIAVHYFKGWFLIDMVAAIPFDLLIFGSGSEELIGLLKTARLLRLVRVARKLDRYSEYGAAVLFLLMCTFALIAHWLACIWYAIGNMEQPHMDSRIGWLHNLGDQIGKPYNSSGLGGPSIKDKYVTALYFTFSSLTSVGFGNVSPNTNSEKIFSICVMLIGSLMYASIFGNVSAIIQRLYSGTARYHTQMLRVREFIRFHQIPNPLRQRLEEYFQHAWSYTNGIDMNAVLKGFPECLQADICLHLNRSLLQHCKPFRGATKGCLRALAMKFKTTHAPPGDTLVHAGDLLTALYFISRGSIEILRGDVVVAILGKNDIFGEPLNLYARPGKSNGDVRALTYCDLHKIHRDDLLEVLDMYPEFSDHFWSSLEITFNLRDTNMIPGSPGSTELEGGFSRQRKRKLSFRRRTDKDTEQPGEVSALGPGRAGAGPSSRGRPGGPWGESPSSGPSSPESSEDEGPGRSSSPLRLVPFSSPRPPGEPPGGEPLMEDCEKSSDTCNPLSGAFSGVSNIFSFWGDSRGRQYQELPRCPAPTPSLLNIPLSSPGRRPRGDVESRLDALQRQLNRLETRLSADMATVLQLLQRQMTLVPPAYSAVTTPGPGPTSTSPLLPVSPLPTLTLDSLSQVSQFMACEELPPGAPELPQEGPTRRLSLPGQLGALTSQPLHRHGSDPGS

CC#Cc1cc(-c2ccc3c(c2)C2(COC(N)=N2)C2(COC2)CO3)ccn1 (centres unmarked) [RP 20]
IC50 (BACE1 [1]): 2710 nM
IC50 (BACE1 [2]; [4]): 580 nM

CC#Cc1cc(-c2ccc3c(c2)C2(COC(N)=N2)C2(COC2)CO3)ncn1 (centres unmarked) [RP 21]
IC50 (BACE1 [1]): 1350 nM
IC50 (BACE1 [2]; [4]): 410 nM

CC#Cc1cncc(-c2ccc3c(c2)C2(COC(N)=N2)C2(COC2)CO3)n1 (centres unmarked) [RP 22]
IC50 (BACE1 [1]): 2600 nM
IC50 (BACE1 [2]; [4]): 2900 nM

NC1=NC2(CO1)c1cc(C3=CCOCC3)ccc1OCC21COC1 (centres unmarked) [RP 24]
IC50 (BACE1 [1]): 32900 nM
IC50 (BACE1 [3]): 37900 nM

Cc1cc(-c2ccc3c(c2)C2(COC(N)=N2)C2(COC2)CO3)ccn1 (centres unmarked) [RP 37]
IC50 (BACE1 [1]): 55400 nM

COc1ccnc(-c2ccc3c(c2)C2(COC(N)=N2)C2(COC2)C(C)(C)O3)c1 (centres unmarked) [RP 65, 6′-(4-methoxypyridin-2-yl)-2′,2′-dimethyldispiro[1,3-oxazole-4,4′-chromene-3′,3″-oxetan]-2-amine]
IC50 (BACE1 [1]): 388 nM
IC50 (BACE1 [2]; [4]): 49 nM

Cc1cn2ccc(-c3ccc4c(c3)C3(COC(N)=N3)C3(COC3)C3(CCC3)O4)cc2n1 (centres unmarked) [RP 66]
IC50 (hERG potassium channel): > 10000 nM
IC50 (BACE1 [1]): 135000 nM

Cc1cn2cc(-c3ccc4c(c3)C3(COC(N)=N3)C3(COC3)C3(CCC3)O4)ccc2n1 (centres unmarked) [RP 67]
IC50 (hERG potassium channel): > 10000 nM
IC50 (BACE1 [1]): 96500 nM

NC1=NC2(CO1)c1cc(-c3cc(Cl)cnc3F)ccc1OCC21CC1 (centres unmarked) [RP 104]
IC50 (hERG potassium channel): 3250 nM
IC50 (BACE1 [1]): 1130 nM

CC1(C)Oc2ccc(-c3cc(F)ccn3)cc2C2(COC(N)=N2)C12COC2 (centres unmarked) [RP 149]
IC50 (BACE1 [1]): 1590 nM
IC50 (BACE1 [2]; [4]): 1100 nM

CC1(C)Oc2ccc(-c3cncc(Cl)n3)cc2C2(COC(N)=N2)C12COC2 (centres unmarked) [RP 150]
IC50 (BACE1 [1]): 759 nM
IC50 (BACE1 [2]; [4]): 450 nM

CC1(C)Oc2ccc(-c3cc(Cl)cnc3F)cc2C2(COC(N)=N2)C12COC2 (centres unmarked) [RP 154]
IC50 (hERG potassium channel): > 1000 nM
IC50 (BACE1 [1]): 313 nM
IC50 (BACE1 [2]; [4]): 32 nM

COc1ncc(Cl)cc1-c1ccc2c(c1)C1(COC(N)=N1)C1(COC1)C(C)(C)O2 (centres unmarked) [RP 155]
IC50 (BACE1 [1]): 786 nM
IC50 (BACE1 [2]; [4]): 630 nM

CC1(C)Oc2ccc(-c3ccnc(Cl)c3)cc2C2(COC(N)=N2)C12COC2 (centres unmarked) [RP 163]
IC50 (BACE1 [1]): 1060 nM

COc1cc(-c2ccc3c(c2)C2(COC(N)=N2)C2(COC2)C(C)(C)O3)ccn1 (centres unmarked) [RP 164]
IC50 (BACE1 [1]): 2310 nM

CC1(C)Oc2ccc(-c3cnc4[nH]ccc4c3)cc2C2(COC(N)=N2)C12COC2 (centres unmarked) [RP 168]
IC50 (BACE1 [1]): 760 nM
IC50 (BACE1 [2]; [4]): 310 nM

CC1(C)Oc2ccc(-c3cc(C#N)ccc3F)cc2C2(COC(N)=N2)C12COC2 (centres unmarked) [RP 170]
IC50 (BACE1 [1]): 588 nM
IC50 (BACE1 [3]): 1000 nM
IC50 (BACE1 [2]; [4]): 400 nM

CNC(=O)c1cc(F)cc(-c2ccc3c(c2)C2(COC(N)=N2)C2(COC2)C(C)(C)O3)c1 (centres unmarked) [RP 171]
IC50 (BACE1 [1]): 3040 nM
IC50 (BACE1 [3]): 2240 nM
IC50 (BACE1 [2]; [4]): 3100 nM

CCC1CC=C(c2ccc3c(c2)C2(COC(N)=N2)C2(COC2)C(C)(C)O3)CC1 (centres unmarked) [RP 172]
IC50 (BACE1 [1]): 2160 nM
IC50 (BACE1 [3]): 2240 nM

CC1(C)Oc2ccc(-c3cncc(Cl)c3)cc2C2(COC(N)=N2)C12COC2 (centres unmarked) [RP 173]
IC50 (BACE1 [1]): 239 nM
IC50 (BACE1 [3]): 401 nM
IC50 (BACE1 [2]; [4]): 73 nM

CC1(C)Oc2ccc(-c3ccc4[nH]ccc4c3)cc2C2(COC(N)=N2)C12COC2 (centres unmarked) [RP 174, 6′-(1H-indol-5-yl)-2′,2′-dimethyldispiro[1,3-oxazole-4,4′-chromene-3′,3″-oxetan]-2-amine]
IC50 (BACE1 [1]): 2180 nM
IC50 (BACE1 [3]): 3350 nM
IC50 (BACE1 [2]; [4]): 3400 nM

CC1(C)Oc2ccc(-c3cccc4cc[nH]c34)cc2C2(COC(N)=N2)C12COC2 (centres unmarked) [RP 175]
IC50 (BACE1 [1]): 1550 nM
IC50 (BACE1 [3]): 3230 nM

CC1(C)Oc2ccc(-c3cccc4[nH]ncc34)cc2C2(COC(N)=N2)C12COC2 (centres unmarked) [RP 176]
IC50 (BACE1 [1]): 994 nM
IC50 (BACE1 [2]; [4]): 850 nM

CC1(C)Oc2ccc(-c3ccc4[nH]ncc4c3)cc2C2(COC(N)=N2)C12COC2 (centres unmarked) [RP 177]
IC50 (BACE1 [1]): 2120 nM
IC50 (BACE1 [2]; [4]): 1500 nM

CC1(C)Oc2ccc(-c3ccc4nonc4c3)cc2C2(COC(N)=N2)C12COC2 (centres unmarked) [RP 178]
IC50 (BACE1 [1]): 747 nM
IC50 (BACE1 [3]): 1150 nM
IC50 (BACE1 [2]; [4]): 810 nM

CC1(C)Oc2ccc(-c3cccc4cccnc34)cc2C2(COC(N)=N2)C12COC2 (centres unmarked) [RP 179]
IC50 (BACE1 [1]): 2060 nM
IC50 (BACE1 [3]): 3240 nM
IC50 (BACE1 [2]; [4]): 1400 nM

CC1(C)Oc2ccc(-c3cccc4cnccc34)cc2C2(COC(N)=N2)C12COC2 (centres unmarked) [RP 180]
IC50 (BACE1 [1]): 1770 nM
IC50 (BACE1 [3]): 2030 nM
IC50 (BACE1 [2]; [4]): 490 nM

COC/C=C/c1ccc2c(c1)C1(COC(N)=N1)C1(COC1)C(C)(C)O2 (centres unmarked) [RP 181]
IC50 (BACE1 [1]): 2130 nM
IC50 (BACE1 [3]): 2590 nM
IC50 (BACE1 [2]; [4]): 820 nM

CC1(C)Oc2ccc(-c3ccc4c(c3)OCO4)cc2C2(COC(N)=N2)C12COC2 (centres unmarked) [RP 182]
IC50 (BACE1 [1]): 1450 nM
IC50 (BACE1 [2]; [4]): 2500 nM

CC1(C)Oc2ccc(-c3cccc(OC(F)(F)F)c3)cc2C2(COC(N)=N2)C12COC2 (centres unmarked) [RP 183]
IC50 (BACE1 [1]): 880 nM
IC50 (BACE1 [3]): 1080 nM

CC1(C)Oc2ccc(-c3ccccc3OC(F)(F)F)cc2C2(COC(N)=N2)C12COC2 (centres unmarked) [RP 184]
IC50 (BACE1 [1]): 2720 nM
IC50 (BACE1 [3]): 2820 nM

CC1(C)Oc2ccc(-c3c(F)ccc(F)c3F)cc2C2(COC(N)=N2)C12COC2 (centres unmarked) [RP 185]
IC50 (BACE1 [1]): 1270 nM
IC50 (BACE1 [3]): 2050 nM
IC50 (BACE1 [2]; [4]): 760 nM

CC1(C)Oc2ccc(-c3cccc4[nH]ccc34)cc2C2(COC(N)=N2)C12COC2 (centres unmarked) [RP 186]
IC50 (BACE1 [1]): 2420 nM

CC1(C)Oc2ccc(-c3ccc(OC(F)F)cc3)cc2C2(COC(N)=N2)C12COC2 (centres unmarked) [RP 187]
IC50 (BACE1 [1]): 1920 nM
IC50 (BACE1 [3]): 3160 nM

NC1=NC2(CO1)c1cc(-c3cncnc3)ccc1OC(Cc1ccccc1)C21COC1 (centres unmarked) [RP 202]
IC50 (hERG potassium channel): 7730 nM
Ki (BACE1 [3]; read-out: Test Example 1 BACE1 MCA Ki, MCA substrate): 113 nM
IC50 (BACE1 [3]): 145 nM
IC50 (BACE1 [2]; read-out: Test Example 3 IC50, Aβ40 production): 26 nM

NC1=NC2(CO1)c1cc(-c3cncnc3)ccc1OC(CC1CC1)C21COC1 (centres unmarked) [RP 204]
IC50 (hERG potassium channel): > 10000 nM
IC50 (BACE1 [3]): 388 nM
IC50 (BACE1 [2]; [4]): 240 nM

NC1=NC2(CO1)c1cc(-c3cncnc3)ccc1OC(CC1CC1)C21COC1 (centres unmarked) [RP 207]
IC50 (hERG potassium channel): > 10000 nM
IC50 (BACE1 [3]): 460 nM
IC50 (BACE1 [2]; [4]): 160 nM

NC1=NC2(CO1)c1cc(-c3cncnc3)ccc1OCC21CC(F)(F)C1 (centres unmarked) [RP 208]
IC50 (hERG potassium channel): > 10000 nM
IC50 (BACE1 [3]): 7760 nM
IC50 (BACE1 [2]; [4]): 6100 nM

NC1=NC2(CO1)c1cc(-c3cccnc3)ccc1OC1(CCC1)C21COC1 (centres unmarked) [RP 209]
IC50 (hERG potassium channel): > 10000 nM
IC50 (BACE1 [3]): 2000 nM
IC50 (BACE1 [2]; [4]): 830 nM

NC1=NC2(CO1)c1cc(-c3cncc4ccccc34)ccc1OC1(CCC1)C21COC1 (centres unmarked) [RP 210]
IC50 (hERG potassium channel): 3700 nM
IC50 (BACE1 [1]): 4950 nM

NC1=NC2(CO1)c1cc(-c3cnc4ccccc4c3)ccc1OC1(CCC1)C21COC1 (centres unmarked) [RP 211]
IC50 (BACE1 [1]): 19400 nM

Cn1cc2cc(-c3ccc4c(c3)C3(COC(N)=N3)C3(CC3)CO4)ccc2n1 (centres unmarked) [RP 213]
IC50 (hERG potassium channel): > 10000 nM
IC50 (BACE1 [1]): 39600 nM

NC1=NC2(COC1)c1cc(-c3cncnc3)ccc1OCC21CC1 (centres unmarked) [RP 215, 6′-(pyrimidin-5-yl)-6″H-dispiro[cyclopropane-1,3′-chromene-4′,3″-[1,4]oxazin]-5″-amine]
IC50 (hERG potassium channel): > 10000 nM
IC50 (BACE1 [3]): 1210 nM
IC50 (BACE1 [2]; [4]): 240 nM
